Assay results as given in patent US7238469B2, “Carbon monoxide improves outcomes in tissue and organ transplants and suppresses apoptosis” (priority 2001, dated 2007).
Where “and” joins values, the source holds several entries; their conditions need not be identical. Identical values can stand only once. Counter-ions that a name gives are not always drawn. Residues, ends and D or L forms follow the SMILES beside them.

Legend:
islet cell grafts = test: Islet graft survival after induction of HO-1 by CoPP in donors and recipients; format: in vivo, mouse; conditions: 350–400 islets; for Rejection day: individual recipients
Procedure: Whether induction of HO-1 in donors and recipients would protect islet cell grafts was investigated. The following procedures were utilized to generate the data illustrated in Table 1, below. A mouse model was utilized for the experiments. Donors of islet cells were treated with cobalt protoporphyrin (CoPP) (20 mg/kg) once per day before islet cell isolation. Recipients of islet cell grafts were treated with CoPP (20 mg/kg) once per day on days 1, 3, 5, 7 or with CoPP (10 mg/kg) once per day on days 1, 3, 5, 7, 9, 11, 13, 15, and 17. Treatment with CoPP induces expression of heme oxygenase-1 (HO-1).
Listed under “rejection day” are the days to which islets survived. For instance, “>51×2”, means that islets in 2 recipients were still surviving after 51 days. The mean date of rejection is shown in the fourth column.

2F–2B ECs = format: cell-based, murine
Procedure: The murine 2F–2B endothelial cell line (ATCC) was transiently transfected as described elsewhere (Soares et al., Nature Med. 4:1073, 1998; Brouard et al, J. Exp. Med. 192:1015, 2000). All experiments were conducted 24–48 h after transfection. é-galactosidase-transfected cells were detected as described elsewhere (Soares et al., Nature Med. 4:1073, 1998; Brouard et al., J. Exp. Med. 192:1015, 2000). Percentage of viable cells was assessed by evaluating the number of é-galactosidase-expressing cells that retained normal morphology as described elsewhere (Soares et al., Nature Med. 4:1073, 1998; Brouard et al., J. Exp. Med. 192:1015, 2000). The number of random fields counted was determined to have a minimum of 200 viable transfected cells per control well. The percentage of viable cells was normalized for each DNA preparation to the number of transfected cells counted in the absence of the apoptosis-inducing agent (100% viability). All experiments were performed at least three times in duplicate. Actinomycin D (Act. D; Sigma) was dissolved in PBS and added to the culture medium (10 îg/ml) 24 h after transfection. SnPPIX (Porphyrin Products) was dissolved (10 îM) in 100 mM NaOH and conserved at −20° C. until used. SNPPIX was added to the culture medium (50 îM) 6 h after transfection. Human recombinant TNF-α (R&D Systems, Minneapolis, Minn.) was dissolved in PBS, 1% BSA, and added to the culture medium (10–100 ng/ml) 24 h after transfection.
Cells were exposed to compressed air or varying concentration of CO (250 and 10,000 ppm), as described elsewhere (Otterbein et al., Nature Med. 6:422, 2000; and Brouard et al., J. Exp. Med. 192:1015, 2000).
BAECs and 2F–2B ECs were transiently transfected. All experiments were carried out 24–48 h after transfection. The percentage of viable cells was assessed by evaluating the number of β-galactosidase-expressing cells that retained normal morphology. The number of random fields counted was determined to have a minimum of 200 viable transfected cells per control well. The percentage of viable cells was normalized for each DNA preparation to the number of transfected cells counted in the absence of the apoptosis-inducing agent (100% viability). All experiments were performed at least three times in duplicate.
Actinomycin D (Act.D; Sigma-Aldrich) was dissolved in PBS and added to the culture medium 24 h after transfection. The Act.D concentration used corresponded to the optimal concentration necessary to sensitize ECs to TNF-α mediated apoptosis, e.g., 10 μg/ml for 2F–2B ECs and 0.1 μg/ml for BAECs. When indicated, EC apoptosis was induced by etoposide (200 μM, 8 h; Calbiochem-Novabiochem) or by serum deprivation (0.1% FCS for 24 h). The iron chelator deferoxamine mesylate (DFO; Sigma-Aldrich) was dissolved in water and added to culture medium (1–100 μM) 1 h before the induction of apoptosis. Hemoglobin (Hb; Sigma-Aldrich) was dissolved (1 mM) in PBS, 10 mM Na2S2O4, dialyzed against PBS (2 h, 4° C., 1:800 dilution), and added to the culture medium (1–100 μM) 6 h after transfection. The guanylcyclase inhibitor 1H(1,2,4)oxadiazolo(4,3)quinoxalin-1 (ODQ; Calbiochem-Novabiochem) was dissolved in DMSO (Sigma-Aldrich) and added to the culture medium (10–100 μM) 6 h after transfection. Iron protoporphyrin ([FePP]/heme), cobalt protoporphyrin (CoPPIX), and tin protoporphyrin (SnPPIX; all from Porphyrin Products, Inc.) were dissolved (10 mM) in 100 mM NaOH and held at −20° C. until use. Metalloporphyrins were added to the culture medium (50 μM) 6 h after transfection. The cGMP analogue 8-bromo-cGMP sodium salt (8-Br-cGMP; Sigma-Aldrich) was dissolved in water and added to the culture medium (10–100 µM) 30 min before the induction of apoptosis. Human recombinant TNF- (R&D Systems) was dissolved in PBS and 1% BSA, and added to the culture medium (10–100 ng/ml) 24 h after transfection.
Cells were exposed to compressed air from a compressed air tank or varying concentrations of CO (250 and 10,000 ppm).

[1] = system: rat platelets overlaid on mouse 2F–2B endothelial cells; test: Platelet aggregation assay, platelets overlaid on pretreated endothelial cells; format: cell-based; conditions: endothelial cells pretreated with protoporphyrin 50 μM; ADP 2 μM
Procedure: Mouse 2F–2B endothelial cells were cultured on 0.2% gelatin (Sigma) coated six-well plates in 88% DMEM (Life Technologies), 10% FCS (FCS), 100 U/ml penicillin, and 100 îg/ml streptomycin (Life Technologies). Confluent endothelial cells either were left untreated or were treated with the HO-inducing agent CoPPIX (50 îM; 18 h), the HO inhibitor SnPPIX (50 îM, 18 h), or both CoPPIX (50 îM, 15 h) and SnPPIX (50 îM, 3 h). Platelet-rich plasma was obtained by centrifugation (290-g, 12 min, 19° C.) of normal rat […] in 3.8% sodium citrate. Rat platelets (3–10^8 cells ml) were resuspended in HT buffer (8.9 mM NaHCO3, 0.8 mM KH2PO, 5.6 mM dextrose, 2.8 mM KCl solution, 0.8 mM MgCl2, 129 mM NaCl, 10 mM HEPES). Platelets were overlaid (5 min; 37° C.) on mouse endothelial cells, and platelet aggregation assays were conducted as described before (Kaczmarek et al, J. Biol. Chem. 271:33116, 1996) by using an aggregometer (Chrono-Log, Harestown, Pa.) and ADP (0.5–4 μM) as an agonist.

HO-1 = test: Western blot of HO-1 expression in cultured endothelial cells; format: cell-based, mouse; conditions: data not shown
Procedure: Endothelial cells were washed in PBS (pH 7.2), harvested by scraping, and lysed in Laemmli buffer. Electrophoresis was conducted under denaturing conditions with 10% polyacrylamide gels. Proteins were transferred onto a polyvinyldifluoridine membrane (immobilon P; Millipore, Bedford, Mass.) by electroblotting and detected with rabbit polyclonal Abs directed against human HO-1 or HO-2 (StressGen, Victoria, Canada) or é-tubulin (Boehringer Mannheim, Mannheim, Germany). Proteins were visualized by using HRP-conjugated donkey anti-rabbit IgG or goat anti-mouse IgG (Pierce) and the ECL assay (Amersham Life Science, Arlington Heights, Ill.) according to manufacturer's instructions.

βTC3 cells = test: TNF-α mediated apoptosis of β-gal transfected βTC3 cells (percentage of viable cells); format: cell-based, murine; conditions: for inhibition of TNF-α mediated apoptosis: TNF-α 24 hours, inhibitor added two hours before TNF-α (Z-DEVD-FMK 10 μM, IETD-CHO 1 μM)
Procedure: The murine insulinoma cell line βTC3 (DSMZ, Braunschweig, Germany) was cultured in Dulbecco's Modified Eagle's Medium (DMEM) (Life Technologies, Grand Island, N.Y., USA) supplemented with 2 mM L-glutamine, 100 U/ml penicillin G, 100 U/ml streptomycin and 10% Fetal Calf Serum (FCS) (Life Technologies) and incubated in humidified 5% CO2/95% air at 37° C. This murine β-cell line, derived from transgenic mice carrying a hybrid insulin-promoter simian virus 40 tumor antigen, is known to maintain the features of differentiated β-cells for about 50 passages in culture. […] Compared to other frequently used transformed β-cell lines such as RIN-m5F and HIT, levels of secreted insulin are closer to normal β-cells in the βTC3 cell line. Thus, these cells are useful for studying β-cell regulation and gene expression (D'Ambra et al., Endocrinology 726:2815–22, 1990).
βTC3 were seeded at 3×10^5 cells in 16 mm wells and transfected 15 to 20 hours later using Lipofectamine plus™ reagents (Life Technologies) according to the manufacturer's instructions. Total DNA was maintained constant using empty pcDNA3 vector. The percentage of viable cells was assessed by normalizing the percentage of viable cells of each DNA preparation to the number of control-transfected cells without the apoptotic stimulus (100% viability) (Soares et al., Nature Med. 4:1073–1077, 1998; Sato et al., J. Immunol. 166:4185–4194, 2001).
Murine recombinant TNF-α (R&D Systems) was dissolved in PBS with 1% bovine serum albumin and added to the culture medium (17.5 ng/ml=500 U) 24 hours after transfection. The caspase-3 inhibitor Z-DEVD-FMK and the caspase-8 inhibitor IETD-CHO (Calbiochem, San Diego, Calif.) were dissolved in dimethyl sulphoxide (DMSO, Sigma) and added to the culture medium (10 μM and 1 μM respectively) two hours before treatment with TNF-α. Tin protoporphyrin (SnPPIX) (Porphyrin Products, Logan, Utah) was dissolved (10 mM) in 100 mM NaOH and added 6 hours after transfection to the culture medium (50 μM). The guanylyl cyclase inhibitor 1H[1,2,4]oxadiazolo[4,3-α]quinoxalin-1 (ODQ; Calbiochem) was dissolved in DMSO and added to the culture medium (100 μM) 6 hours after transfection. The cGMP analogue 8-bromoguanosine-3′-5′-cyclic-monophosphate (8-Br-cGMP) (Sigma) was dissolved in water and added to the culture medium (10 μM) 30 minutes before induction of apoptosis. The protein kinase G inhibitor KT5823 (Calbiochem) was dissolved in DMSO and added to the culture medium (1.6 μM) 6 hours after transfection.
Cells and islets were exposed to 1% carbon monoxide in compressed air balanced with 5% CO2, as described elsewhere (see, e.g., Otterbein et al., Nature Med. 6:422–428, 2000). Islets were incubated in RPMI medium pre-saturated with carbon monoxide (4° C. overnight, 1% CO, 5% CO2) for two hours at 37° C. while treatment with 1% CO, 5% CO2 was continued.

With C=CC1=C(C)c2cc3[n-]c(cc4nc(cc5[n-]c(cc1n2)c(C)c5CCC(=O)[O-])C(CCC(=O)[O-])=C4C)c(C)c3C=C.[Co+2].[H+].[H+] [CoPP, cobalt protoporphyrin] the “Rejection day Mean ± SD” value (islet cell grafts; CoPP 10 mg/kg × 10) was 40.5 ± 12.12 days, the Rejection/Total (islet cell grafts; CoPP 10 mg/kg × 10) was 2/4 and the Rejection day (islet cell grafts; CoPP 10 mg/kg × 10) was over 51 days. The “Rejection day Mean ± SD” value (islet cell grafts; CoPP 20 mg/kg × 5) was 44.85 ± 17.81 days, the Rejection/Total (islet cell grafts; CoPP 20 mg/kg × 5) was 4/7 and the Rejection day (islet cell grafts; CoPP 20 mg/kg × 5) was >58 × 2, day and >67 × 1 day. For the same compound, the “effect of protoporphyrin on the antiapoptotic effect of HO-1” value (2F–2B ECs; HO-1 transfected ECs, protoporphyrin 50 μM) was “did not suppress the antiapoptotic effect of HO-1 or that of bcl-2”, the “platelet aggregation on stimulation by ADP” value [1] was “platelet aggregation was significantly inhibited” and the “expression of HO-1 in cultured endothelial cells” value (HO-1) was “up-regulated the expression of HO-1”.
For CC(=O)N(O)CCCCCNC(=O)CCC(=O)N(O)CCCCCNC(=O)CCC(=O)N(O)CCCCCN [DFO, deferoxamine mesylate], the “effect on EC apoptosis when HO-1 activity was inhibited by SnPPIX or the action of CO suppressed by Hb” value (2F–2B ECs; DFO) was “still able to prevent EC apoptosis”, the “effect on EC apoptosis under inhibition of HO activity by SnPPIX” value (2F–2B ECs; DFO 100 μM alone) was “suppressed EC apoptosis, but to a lesser extent than HO-1” and the “effect on EC apoptosis induced by TNF-α plus Act.D” value (2F–2B ECs; DFO 1–100 μM) was “suppressed”.
CC[C@H](C)[C@H](NC(C)=O)C(=O)N[C@@H](CCC(=O)O)C(=O)N[C@H](C(=O)N[C@H](C=O)CC(=O)O)[C@@H](C)O [IETD-CHO] (Ac-IETD-aldehyde) was tested, and the “inhibition of TNF-α mediated apoptosis” value (βTC3 cells) was 96%.
With COC(=O)[C@@]1(OC)C[C@H]2O[C@]1(C)n1c3ccccc3c3c4c(c5c6ccccc6n2c5c31)C(=O)N(C)C4 [KT5823] the “effect on the anti-apoptotic effect of exogenous CO” value (βTC3 cells; TNF-α, 1% CO, ODQ 100 μM, KT5823 1.6 μM) was “suppressed the anti-apoptotic effect of exogenous carbon monoxide”.
With C[S+]([O-])c1ccc(-c2nc(-c3ccncc3)c(-c3ccc(F)cc3)[nH]2)cc1 (stereo not shown) [SB203580] the “effect on the antiapoptotic action of HO-1” value (2F–2B ECs; SB203580 10–20 μM, dose dependent) was “antiapoptotic action of HO-1 is suppressed”.
With COC(=O)CC[C@H](NC(=O)[C@H](CC(=O)OC)NC(=O)OCc1ccccc1)C(=O)N[C@H](C(=O)N[C@@H](CC(=O)OC)C(=O)CF)C(C)C [Z-DEVD-FMK] the “inhibition of TNF-α mediated apoptosis” value (βTC3 cells) was 53%.
